Measurements taken from article PMC3083694, “Effects of Intermediates between Vitamins K2 and K3 on Mammalian DNA Polymerase Inhibition and Anti-Inflammatory Activity” (International Journal of Molecular Sciences, 2011).

How the values were obtained:
Human DNA polymerase γ [1] = target: T1, Human DNA polymerase γ (Homo sapiens, UniProt P54098); parameters: method as in PMID 18312466, PMID 18698499, PMID 20030669, PMID 20881898; details: earlier work of the authors; cited from earlier work
T1 construct: made in house
T1 sequence (P54098 1-1239): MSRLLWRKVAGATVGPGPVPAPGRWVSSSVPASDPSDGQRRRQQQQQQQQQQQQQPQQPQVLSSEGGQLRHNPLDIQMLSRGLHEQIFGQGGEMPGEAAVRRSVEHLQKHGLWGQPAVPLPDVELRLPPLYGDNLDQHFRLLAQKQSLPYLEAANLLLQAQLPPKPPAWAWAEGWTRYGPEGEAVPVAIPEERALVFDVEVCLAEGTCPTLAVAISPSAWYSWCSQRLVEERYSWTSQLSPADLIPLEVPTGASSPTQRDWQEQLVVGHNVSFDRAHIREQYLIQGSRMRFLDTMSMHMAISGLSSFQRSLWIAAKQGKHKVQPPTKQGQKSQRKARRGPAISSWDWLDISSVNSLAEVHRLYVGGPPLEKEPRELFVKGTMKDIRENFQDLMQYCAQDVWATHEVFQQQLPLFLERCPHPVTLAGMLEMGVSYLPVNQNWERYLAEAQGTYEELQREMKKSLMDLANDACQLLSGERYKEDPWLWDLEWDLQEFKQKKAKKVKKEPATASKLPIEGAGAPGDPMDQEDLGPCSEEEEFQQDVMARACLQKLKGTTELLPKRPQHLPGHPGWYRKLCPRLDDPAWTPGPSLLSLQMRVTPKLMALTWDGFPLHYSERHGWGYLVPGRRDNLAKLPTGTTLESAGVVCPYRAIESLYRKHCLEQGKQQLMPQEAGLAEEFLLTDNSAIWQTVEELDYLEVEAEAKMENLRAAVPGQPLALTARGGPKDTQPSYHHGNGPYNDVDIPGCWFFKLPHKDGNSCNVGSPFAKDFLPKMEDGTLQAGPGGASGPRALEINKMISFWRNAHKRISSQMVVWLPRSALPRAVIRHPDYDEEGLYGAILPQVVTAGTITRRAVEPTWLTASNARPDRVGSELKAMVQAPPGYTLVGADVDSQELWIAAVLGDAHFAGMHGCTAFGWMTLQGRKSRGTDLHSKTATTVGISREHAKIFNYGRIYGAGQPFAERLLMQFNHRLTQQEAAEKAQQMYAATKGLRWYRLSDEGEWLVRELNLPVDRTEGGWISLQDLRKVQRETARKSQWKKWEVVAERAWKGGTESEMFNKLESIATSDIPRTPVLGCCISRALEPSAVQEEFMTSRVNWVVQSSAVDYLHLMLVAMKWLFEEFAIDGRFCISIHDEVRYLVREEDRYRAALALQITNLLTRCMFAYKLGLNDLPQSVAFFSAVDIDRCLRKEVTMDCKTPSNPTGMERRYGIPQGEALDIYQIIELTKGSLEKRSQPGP

Human DNA polymerase γ [2] = target: T1, Human DNA polymerase γ; experiment: DNA polymerase activity assay, human pol γ; assay type: biochemical; details: 50 μM of each compound; Figure 2
Method: Pols from mammals, a fish (cherry salmon), an insect (fruit fly) and a plant (cauliflower) were purified, and prokaryotic pols and other DNA metabolic enzymes, such as T7 RNA polymerase, T4 polynucleotide kinase and bovine deoxyribonuclease I, were purchased as described in our previous report. The activities of all pols and other DNA metabolic enzymes were measured as described in previous reports.
The components of the pol assay were poly(dA)/oligo(dT)18 and dTTP as the DNA template-primer and 2′-deoxyribonucleoside 5′-triphosphate (dNTP) substrate, respectively. VK2, VK3, and their synthesized derivatives (i.e., MK-3, MK-2 and MK-1) were dissolved in dimethyl sulfoxide (DMSO) at various concentrations and sonicated for 30 s. The sonicated samples (4 μL) were mixed with 16 μL of each pol enzyme (final amount, 0.05 units) in 50 mM Tris-HCl (pH 7.5) containing 1 mM dithiothreitol, 50% glycerol and 0.1 mM EDTA, and kept at 0 °C for 10 min. These inhibitor–enzyme mixtures (8 μL) were added to 16 μL of each standard enzyme reaction mixture (50 mM Tris-HCl [pH 7.5], 1 mM dithiothreitol, 1 mM MgCl2, 15% glycerol, 10 μM poly(dA)/oligo(dT)18 and 10 μM [^3H]-dTTP), and incubation was carried out at 37 °C for 60 min, except for Taq pol, which was incubated at 74 °C for 60 min. Activity without the inhibitor was considered to be 100%, and the activity remaining at each concentration of inhibitor was determined relative to this value. One unit of pol activity was defined as the amount of enzyme that catalyzed the incorporation of 1 nmol dNTP (dTTP) into the synthetic DNA template-primer (poly(dA)/oligo(dT)18, A/T = 2/1) in 60 min at 37 °C under normal reaction conditions for each enzyme (scintillation counts: approximately 1 pmol of incorporated radioactive nucleotides = 100 cpm).

[3] = tested on: TPA-induced edema on mouse ear; experiment: TPA-induced mouse ear inflammatory test; assay type: in vivo; details: 250 or 500 μg applied to ear 30 min before TPA (0.5 μg); edema evaluated after 7 h; Figure 3
Method: All animal studies were performed according to the guidelines outlined in the “Care and Use of Laboratory Animals” of Kobe University. The animals were anesthetized with pentobarbital before undergoing cervical dislocation. Female 8-week-old C57BL/6 mice that had been bred in-house with free access to food and water were used for all experiments. All of the mice were maintained under a 12-h light/dark cycle and housed at a room temperature of 25 °C.
The mouse inflammatory test was performed according to Gschwendt’s method. In brief, an acetone solution of the VK2 and VK3 intermediates (250 or 500 μg in 20 μL) or 20 μL of acetone as a vehicle control was applied to the inner part of the mouse ear. Thirty minutes after the test compound was applied, a TPA solution (0.5 μg/20 μL of acetone) was applied to the same part of the ear. To the other ear of the same mouse, methanol, followed by TPA solution, was applied as a control. After 7 h, a disk (6 mm diameter) was obtained from the ear and weighed. The inhibitory effect (IE) is presented as a ratio of the increase in weight of the ear disks: IE=[(TPA only)−(tested compound plus TPA)]/[(TPA only)−(vehicle)]×100

[4] = tested on: LPS-induced production of TNF-α in RAW264.7 cells; experiment: LPS-induced TNF-α production in mouse macrophages (ELISA); assay type: cell-based; details: 10 and 50 μM tested, concentration not specified, Figure 4
Method: A mouse macrophage cell line, RAW264.7, was obtained from American Type Culture Collection (ATCC) (Manassas, VA, U.S.). The cells were cultured in Eagle’s Minimum Essential Medium (MEM) supplemented with 4.5 g of glucose per liter plus 10% fetal calf serum, 5 mM L-glutamine, 50 units/mL penicillin and 50 units/mL streptomycin. The cells were cultured at 37 °C in standard medium in a humidified atmosphere of 5% CO2–95% air.
RAW264.7 cells were placed in a 12-well plate at 5 × 10^4 cells/well and incubated for 24 h. The cells were pretreated with the VK2 and VK3 intermediates (final concentrations of 10 and 50 μM) for 30 min before the addition of 100 ng/mL of LPS. After stimulation with LPS for 24 h, the cell culture medium was collected to measure the amount of TNF-α secreted. The concentration of TNF-α in the culture medium was quantified by using a commercially available enzyme-linked immunosorbent assay (ELISA) development system (Bay Bioscience Co., Ltd., Kobe, Japan) in accordance with the manufacturer’s protocol.

Human DNA polymerase λ = target: T2, Human DNA polymerase λ (Homo sapiens, UniProt Q9UGP5); parameters: method as in PMID 19502749, PMID 14599551; details: reported previously; cited from earlier work
T2 construct: made in house
T2 sequence (Q9UGP5 1-575): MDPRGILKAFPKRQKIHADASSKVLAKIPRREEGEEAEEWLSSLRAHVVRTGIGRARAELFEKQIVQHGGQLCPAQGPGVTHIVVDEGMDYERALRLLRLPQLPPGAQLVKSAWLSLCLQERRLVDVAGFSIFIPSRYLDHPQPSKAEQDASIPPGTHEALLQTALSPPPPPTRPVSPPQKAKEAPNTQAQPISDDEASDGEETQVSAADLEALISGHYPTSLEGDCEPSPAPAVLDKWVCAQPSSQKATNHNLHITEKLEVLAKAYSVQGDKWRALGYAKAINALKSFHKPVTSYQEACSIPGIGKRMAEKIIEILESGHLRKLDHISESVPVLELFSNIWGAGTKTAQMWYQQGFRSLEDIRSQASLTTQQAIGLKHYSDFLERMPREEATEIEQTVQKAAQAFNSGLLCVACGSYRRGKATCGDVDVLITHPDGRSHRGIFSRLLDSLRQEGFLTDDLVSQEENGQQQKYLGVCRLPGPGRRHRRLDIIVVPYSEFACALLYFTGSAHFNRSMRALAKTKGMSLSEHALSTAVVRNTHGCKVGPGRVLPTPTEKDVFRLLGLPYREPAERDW

Row | SMILES | Inhibitor of human pol γ (Human DNA polymerase γ [1]) | Inhibitory effect on human pol γ activity (Human DNA polymerase γ [2]) | Anti-inflammatory activity toward TPA-induced edema on mouse ear [3] | Inhibitory effect on LPS-stimulated TNF-α production [4] | Inhibitor of pol λ (selectivity) (Human DNA polymerase λ)
1 | CC1=C(C/C=C(\C)CCC[C@H](C)CCC[C@H](C)CCCC(C)C)C(=O)c2ccccc2C1=O [VK1, phylloquinone] | not | – | – | – | –
2 | CC1=CC(=O)c2ccccc2C1=O [VK3, menadione, reference compound] | potent and specific inhibitor | selectively inhibited pol γ | weak effect | moderate inhibitory effect | –
3 | COc1cc(/C=C/C(=O)CC(=O)/C=C/c2ccc(O)c(OC)c2)ccc1O [curcumin] | – | – | – | – | pol-λ-specific inhibitor
